pIC50: −log10 of the molar value. Where two headings read alike, the source gives them in different places.
Legend:
[1] = tested on: Petroselinum xyloglucan endotransglucosylase (XET) activity; test: Fluorescent dot-blot XET screen (cellulose-bound xyloglucan + XGO–SR on paper, in the dark); assay type: biochemical, parsley
Protocol: For inhibitor screening, 53 new 96-well plates were set up with 50 μl of parsley enzyme extract per well, and 1 μl of DMSO-solubilised xenobiotic was added to each well, giving concentrations of 0.4 mg/ml (EDI collection, with exceptions noted in Table S2) or 50 μM (LATCA collection) and 2% v/v DMSO.
XET test-paper was prepared as before ([Fry, 1997]) and 112 × 75-mm sheets were attached to cellulose acetate overhead-projector sheets with ‘Spraymount’ adhesive. Each sheet was placed on a pre-cooled glass plate in a cold room at 4 °C.
For inhibitor screening (Fig. 2), 4 μl of a parsley enzyme/xenobiotic mixture was applied to each position on a sheet. Incubation at 20 °C for 2 h, washing, drying and photography were conducted essentially as above.

[2] = tested on: parsley XET activity; test: Radiochemical XET assay (soluble xyloglucan + [3H]XXXGol); assay type: biochemical; conditions: for inhibition of XET activity: additional LATCA compounds re-tested radiochemically at 200 μM; for effect on XET activity in radiochemical assays (as summarised in the discussion): free solution; for effect on XET activity, radiochemical re-screen of 206 compounds (mostly LATCA): LATCA approx. 25 μM, EDI approx. 200 μg/ml, listed in order of decreasing effectiveness; for effect on XET activity, first radiochemical re-screen of EDI hits: most xenobiotics at 200 μg/ml (≈200–800 μM)
Protocol: The parsley enzyme concentration was held constant, and the xenobiotics were tested at 200, 160, 120, 80, 40, 20, 10 and 0 μg/ml (concentrations in the final reaction mixture). Other details were as above.
The riboflavin-free controls received the same DMSO concentration.

[3] = EDI 0.4 mg/ml, LATCA 50 μM, 2 h, dark, cellulose-bound xyloglucan
[4] = soluble xyloglucan, laboratory light

Compound: COc1cc(O)c2c(c1N)C(=O)c1ccccc1C2=O [1-amino-4-hydroxy-2-methoxyanthracene-9,10-dione]
- effect on XET activity in dot-blot (inhibition / promotion) [1, 3]: apparent promoters
- inhibition of XET activity [2]: 29%
- effect on XET activity in radiochemical assays (as summarised in the discussion) [2, 4]: moderately inhibitory

Compound: O=C(O)c1cc[c]([Hg][Cl])cc1 [4-chloromercuribenzoic acid]
- effect on XET activity in dot-blot (inhibition / promotion) [1, 3]: strong inhibitor
- effect on XET activity, radiochemical re-screen of 206 compounds (mostly LATCA) [2]: inhibition
- XET activity inhibited ([2]; by ∼50 μM, little further inhibition up to ∼400 μM): 50–60%

Compound: Cc1ccc(SCc2ccc(C(=O)NCc3ccccn3)cc2)cc1 [4-{[(4-methylphenyl)thio]methyl}-N-(2-pyridinylmethyl)-benzamide]
- effect on XET activity, radiochemical re-screen of 206 compounds (mostly LATCA) [2]: inhibition

Compound: O=C1c2cccc3c(Br)ccc(c23)C(=O)N1O [6-bromo-2-hydroxy-1H-benzo[de]isoquinoline-1,3(2H)-dione]
- effect on XET activity, radiochemical re-screen of 206 compounds (mostly LATCA) [2]: inhibition

Compound: Cc1cccc(OCC(=O)N/N=C/c2ccc(Br)o2)c1 [N′-(1E)-(5-bromofuran-2-yl)methylidene-2-(3-methylphenoxy)acetohydrazide]
- inhibition of XET activity [2]: 24%

Compound: Cc1cc2nc3cc(C)c(N)cc3[n+](-c3ccccc3)c2cc1N [Safranine O]
- effect on XET activity in dot-blot (inhibition / promotion) [1, 3]: stimulatory

Compound: Cc1cc(C(=C2C=CC(=Nc3ccc(S(=O)(=O)O)cc3)C=C2)c2ccc(Nc3ccc(S(=O)(=O)O)cc3)cc2)cc(S(=O)(=O)O)c1N [aniline blue]
- effect on XET activity in radiochemical assays (as summarised in the discussion) [2, 4]: inhibiting XET activity

Compound: CCOc1ccc(Nc2ccc(C(=C3C=CC(=[N+](CC)Cc4cccc(S(=O)(=O)[O-])c4)C=C3)c3ccc(N(CC)Cc4cccc(S(=O)(=O)O)c4)cc3)cc2)cc1 [brilliant blue R]
- effect on XET activity, radiochemical re-screen of 206 compounds (mostly LATCA) [2]: inhibition

Compound: Cc1cc(C2(c3cc(C)c(O)c(Br)c3)OS(=O)(=O)c3ccccc32)cc(Br)c1O [bromocresol purple]
- effect on XET activity, radiochemical re-screen of 206 compounds (mostly LATCA) [2]: inhibition

Compound: CC(C)C(C)C(O)C(O)C(C)C1CCC2C3COC(=O)C4CC(O)C(O)CC4(C)C3CCC12C (stereo not shown) [epibrassinolide]
- inhibition of XET activity [2]: 22%

Compound: O=C(O[C@@H]1Cc2c(O)cc(O)cc2O[C@@H]1c1ccc(O)c(O)c1)c1cc(O)c(O)c(O)c1 [epicatechin gallate]
- effect on XET activity, first radiochemical re-screen of EDI hits [2]: inhibitory
- pIC50 ([2]; read-out: IC50 (concentration required for 50% inhibition of XET activity), radiochemical assay, soluble xyloglucan, laboratory light, 2 h, 20 °C): ~3.40

Compound: C=C[C@@]1(C)CC(=O)[C@]2(O)[C@@]3(C)[C@@H](O)CCC(C)(C)[C@@H]3[C@H](O)[C@H](OC(C)=O)[C@@]2(C)O1 [forskolin]
- effect on XET activity in dot-blot (inhibition / promotion) [1, 3]: stimulatory

Compound: COc1ccc([C@@H]2CC(=O)c3c(O)cc(O)cc3O2)cc1O [hesperetin]
- effect on XET activity in dot-blot (inhibition / promotion) [1, 3]: slightly enhanced

Compound: OCc1c[nH]c2ccccc12 [indole 3-carbinol]
- effect on XET activity in dot-blot (inhibition / promotion) [1, 3]: stimulatory

Compound: C[C@@H]1C/C=C/C=C/C=C/C=C/[C@H](O[C@@H]2O[C@H](C)[C@@H](O)[C@H](N)[C@@H]2O)C[C@@H]2O[C@](O)(C[C@@H](O)C[C@H]3O[C@@H]3/C=C/C(=O)O1)C[C@H](O)[C@H]2C(=O)O [natamycin]
- effect on XET activity in dot-blot (inhibition / promotion) [1, 3]: stimulatory

Compound: O=C(CCc1ccc(O)cc1)c1c(O)cc(O)cc1O[C@@H]1O[C@H](CO)[C@@H](O)[C@H](O)[C@H]1O [phloridzin]
- effect on XET activity in dot-blot (inhibition / promotion) [1, 3]: slightly enhanced

Compound: O=C(O)c1ccccc1C(=O)O [phthalic acid]
- effect on XET activity in dot-blot (inhibition / promotion) [1, 3]: promotion

Compound: O=[N+]([O-])[O-].[Ag+] [silver nitrate]
- effect on XET activity in dot-blot (inhibition / promotion) [1]: inhibitors

Compound: O=C(O)[C@H](O)[C@@H](O)[C@H](O)CO [xylonic acid]
- effect on XET activity in dot-blot (inhibition / promotion) [1, 3]: promotion

Compound: tannic acid
- effect on XET activity, first radiochemical re-screen of EDI hits [2]: inhibitory
